The numbers were not newly measured in patent US20070122442A1, “Triple-Action Pest Control Formulation and Method” (priority 2004, published 2007), which cites them from elsewhere.

In the series the test system is insects. Particulars: variety of insects.

Consider `OB(O)O` [boric acid], for which the “retention at which boric acid is known to be effective” value is listed as “below 0.5%”.
